Results as given in patent US20260191900A1, “Biofilm Treatment” (Phytoceutical Limited, priority 2022, published 2026).
Converted amounts (≈) assume the structure as drawn.

Tests used:
[1] = test system: P. aeruginosa (NCTC12903); test: MIC, broth microdilution; assay type: cell-based, Pseudomonas aeruginosa; conditions: for MIC: Pseudomonas aeruginosa, NCTC12903
Description: (§1) Staphylococcus aureus (NCTC12493; MRSA) and Pseudomonas aeruginosa (NCTC12903) were stored in Pro-Lab Diagnostics Microbank (Fisher, Basingstoke UK) tubes at −80° C. before streaking onto Nutrient Agar (Oxoid, Basingstoke, UK) and incubated at 37° C., aerobically for 18 hours.
(§2) Minimum inhibitory concentrations (MICs) were determined using the broth microdilution method (EUCAST, Clinical Microbiology and Infection (2003), 9(8)). The inoculated liquid culture (grown dynamically overnight at 37° C. in MHB) was adjusted to obtain a ~0.1 OD at 600 nm, equivalent to a 0.5 McFarland Standard. A range of concentrations (diluted in MHB) for each of the compounds were prepared in 96-well plates, followed by the addition of the inoculated media. The plates were then incubated statically for 18 hours at 37° C. Following the incubation period, the lowest concentration of compound presenting an inhibition of bacterial growth was labelled the MIC.

[2] = test system: S. aureus (NCTC12493) biofilm; test: Crystal violet biofilm clearance assay; assay type: cell-based, Staphylococcus aureus; conditions: for amount of biofilm present after treatment (CV stain, OD 600 nm): FIG. 2, 0.000625% PHMB, 10% TPGS, 10% EM, 6.25% EtOH, dosed at day 0 to 7, 24 hours, vs untreated control; for percentage biofilm remaining / amount of biofilm remaining: FIG. 3, 0.1% PHMB, 10% TPGS or both; for percentage biofilm remaining: treated at day 0; for amount of biofilm remaining: treatment at day 1, 2 or 3
Description: as §1
(§3) The two strains of bacteria were produced using different media, with no flocculation occurring. S. aureus was produced using Dulbecco's Modified Eagle Medium and took five to seven days to grow a mature biofilm. P. aeruginosa was produced using M9 minimal media and 1% glucose media and took three days to grow a mature biofilm. Alternatively, Luria-Bertani (LB) broth could be used to grow P. aeruginosa.
(§4) The biofilm growth method and visualisation/analysis techniques were followed from J. Merritt et al. (Curr Protoc Microbiol. (2005); Chapter 1:Unit 1B.1), with modifications. S. aureus (NCTC12493) was grown in DMEM and P. aeruginosa (NCTC12903) was grown in M9 minimal media+1% glucose. Inoculated liquid culture was diluted in 1:100 in their respective medias. Into 96-well plates, 100 μL of the inoculant was added to each well. Following this, the plate was covered with a lid and incubated at 37° C. for 24-hour intervals of up to 7 days, aerobically. The compounds were added and incubated at 37° C. for a further 24 hours. Planktonic bacteria were removed using a pipette, and the biofilms were washed with Milli-Q water. To each well, 125 μL of 0.1% crystal violet (CV) solution was added and left at room temperature for 10-15 minutes. After this, the 0.1% CV solution was removed, and the well was washed until the waste ran clear. The stain was left to air-dry, before 200 μL 30% acetic acid was added to each well for 15 minutes on a plate shaker. To a new 96-well plate, 125 μL stained biofilm solution was transferred and the optical density was read at 600 nm. A comparison was made between the uninhibited biofilm and any biofilm reductions capabilities of the added compounds.
(§5) The candidate compounds were each, therefore, applied at their respective MIC values.
(§6) Bacterial growth kinetics of S. aureus grown in DMEM and P. aeruginosa grown in M9 minimal media+1% glucose were determined. The amount of biofilm remaining was determined using the CV staining method as described above.

[3] = test system: S. aureus (NCTC12493; MRSA); test: MIC, broth microdilution; assay type: cell-based, Staphylococcus aureus; conditions: for MIC: Staphylococcus aureus
Description: as §1, §2

[4] = test system: P. aeruginosa (NCTC12903) biofilm; test: Crystal violet biofilm clearance assay; assay type: cell-based, Pseudomonas aeruginosa; conditions: for amount of biofilm present after treatment (CV stain, OD 600 nm): FIG. 2, 0.000625% PHMB, 10% TPGS, 10% EM, 6.25% EtOH, dosed at different days, 24 hours, vs untreated control; for percentage biofilm remaining / amount of biofilm remaining: FIG. 3, 0.1% PHMB, 10% TPGS or both; for percentage biofilm remaining: treated at day 0; for amount of biofilm remaining: treatment at day 1, 2 or 3
Description: as §1, §3, §4, §5, §6

[5] = test system: P. aeruginosa (NCTC12903); test: CFU count after treatment of biofilm; assay type: cell-based, Pseudomonas aeruginosa; conditions: FIG. 3; 10% TPGS or 0.1% PHMB with 10% TPGS; treated on any day
Description: (§7) The amount of biofilm remaining was determined using the CV staining method as described above. CFU count was determined by the following method: The inoculated liquid culture (grown dynamically overnight at 37° C. in liquid growth media) was spun down in a centrifuged (at max (13.3) speed for 5 minutes) (reference). The supernatant was removed and resuspend in PBS (1:100 dilution). Into each well, 20 μL of inoculated culture LB broth was added to 180 μL LB broth. […] For the untreated wells, 1 μL of PBS was added. The 96-well plate was placed in a TECAN measuring at OD600 over 24 hours at 15-minute intervals. Resulting growth kinetic experiments were conducted using mid-logarithmically growing cultures. […] Following this, the wells were homogenised, and 20 μL samples were plate spotted onto nutrient agar (NA). These plates were incubated for 18 hours at 37° C. before colonies were counted.

[6] = test system: S. aureus (NCTC12493); test: CFU count after treatment of biofilm; assay type: cell-based, Staphylococcus aureus; conditions: FIG. 3; 10% TPGS or 0.1% PHMB with 10% TPGS; treated on any day
Description: as §7

[7] = test system: Fibroblasts; test: SRS-SHG microscopy of fibroblasts exposed to retinol; assay type: cell-based; conditions: 0.31 μg/mL or 0.25 μg/mL; days 1, 3 and 7
Description: Fibroblasts were exposed to compositions containing 0.31 μg/mL or 0.25 μg/mL, and a control sample with no retinol, over a period of 7 days. SRS-SHG microscopy was used to determine absorption of the retinol by the fibroblasts at days 1, 3 and 7 after exposure.

[8] = test system: Fibroblasts; test: Toxicity of retinol to fibroblasts; assay type: cell-based
[9] = Ex-vivo skin penetration, Franz diffusion cells, SRS imaging; assay type: in vitro ADME, pig
Description: Skin penetration studies were performed on dermatomed porcine skin, dosed using vertical Franz diffusion cells.
A scalpel was used to cut each Franz cell disc into a smaller portion for sectioning, and was sanitised with ethanol between samples. A fresh cryostat blade was used for each sample. The cryostat temperature was set to −33° C., and samples equilibrated in the cryostat for approximately 45 minutes prior to sectioning.
After 24 hours, the skin surface was cleaned and cross-sections 30 μm thick were prepared using cryosectioning and mounted onto glass coverslips. SRS (stimulated raman spectroscopy) imaging was used to observe the penetration of the composition through the skin.
SRS imaging used a Leica SP8 microscope with SRS and CARS. A PicoEmerald-S laser system output two pulsed 2 ps laser beams (a 1031 nm Stokes beam spatially and temporally overlapped with a tuneable pump beam). The Stokes beam was modulated at 20 MHz and stimulated Raman loss signals were detected in transmission using a lock-in amplifier (UHFLI, Zurich instruments). CARS and SHG/fluorescence signals were epi-detected in separate PMT channels. A water immersion×25 magnification lens (0.95 NA, Leica) was used. A short working distance air condenser (0.9 NA, Leica) was used. Laser power was 30%, which corresponded to approximately 10 mW for the pump beam and 30 mW for the Stokes beam at the sample. […]

[10] = concentration before inoculation, 18 hours at 37° C., vehicle ethanol, water or none
[11] = concentration before inoculation, 18 hours at 37° C., vehicle ethanol or water
[12] = vehicle TPGS (curcumin solubilised in TPGS)

For polyhexamethylene biguanide [PHMB], the “concentration inhibiting P. aeruginosa growth (MIC)” value [1] was 0.005 % v/v, the “MIC, P. aeruginosa” value [1, 10] was 0.005 w/v % and the “amount of biofilm present after treatment (CV stain, OD 600 nm)” value (“amount of biofilm present” below) [2] was “good biofilm clearance”. The percentage biofilm remaining [2] was “fully reducing the biofilm remaining”, the “amount of biofilm remaining” value [2] was “effective” and the “concentration inhibiting S. aureus growth (MIC)” value [3] was 0.000625 % v/v. For the same compound, the “MIC, S. aureus” value [3, 10] was 0.000625 w/v %, the “amount of biofilm present” value [4] was “an increase in biofilm when dosed on T1” and the percentage biofilm remaining [4] was “fully reducing the biofilm remaining”. For the same compound, the “amount of biofilm remaining” value [4] was “effective”.
With “tocopheryl polyethylene glycol succinate [TPGS]” the “concentration inhibiting P. aeruginosa growth (MIC)” value [1] was 20 % v/v, the “MIC, P. aeruginosa” value [1, 11] was “(200) mg/mL” and the “MIC, P. aeruginosa” value [1, 10] was 20 w/v %. For the same compound, the “amount of biofilm present” value [2] was “a reduction in the amount of biofilm present”, the percentage biofilm remaining [2] was “fully reducing the biofilm remaining” and the “amount of biofilm remaining” value [2] was “effective”. For the same compound, the CFU count [5] was “remained substantially constant”, the “concentration inhibiting S. aureus growth (MIC)” value [3] was 10 % v/v and the “MIC, S. aureus” value [3, 11] was “(200) mg/mL”. For the same compound, the “MIC, S. aureus” value [3, 10] was 20 w/v %, the CFU count [6] was “remained substantially constant” and the “amount of biofilm present” value [4] was “the most effective compound”. For the same compound, the percentage biofilm remaining [4] was “fully reducing the biofilm remaining” and the “amount of biofilm remaining” value [4] was “effective”.
With `CC1=C(/C=C/C(C)=C/C=C/C(C)=C/CO)C(C)(C)CCC1` [Retinol] the MIC [1, 11] was 50 mg/mL (≈ 175 mM), the “MIC, P. aeruginosa” value [1, 10] was 5 w/v % and the “response of fibroblasts (SHG signals outside of nuclei)” value [7] was “concentration and time dependent response”. The MIC [3, 11] was 50 mg/mL (≈ 175 mM), the “MIC, S. aureus” value [3, 10] was 5 w/v % and the “concentration not toxic to fibroblasts” value [8] was no more than 6 µg/mL. For the same compound, the “depth through the skin down to which retinol was observed” value ([9]; composition comprising retinol and TPGS applied to pig skin for 24 hours) was 60 μm and the “penetration of the retinol into the skin” value ([9]; similar experiment, composition including PHMB (1 wt %)) was “did not show penetration”.
In the case of `CCO` [Ethanol], the “MIC, P. aeruginosa” value [1, 10] was 6.25 w/v %, the “amount of biofilm present” value [2] was “at TO there was an increase in biofilm” and the “MIC, S. aureus” value [3, 10] was 6.25 w/v %. The “amount of biofilm present” value [4] was “little to no effect”.
For Polysorbate 40, the “MIC, P. aeruginosa” value [1, 10] was greater than 25% w/v % and the “MIC, S. aureus” value [3, 10] was greater than 25% w/v %.
For `COc1cc(/C=C/C(=O)CC(=O)/C=C/c2ccc(O)c(OC)c2)ccc1O` [Curcumin], the MIC [1, 11] was 2 mg/mL (≈ 5.43 mM), the “MIC, P. aeruginosa” value [1, 10] was 0.2 w/v % and the “MIC, P. aeruginosa” value [1, 12] was 0.1 w/v %. For the same compound, the MIC [3, 11] was 2 mg/mL (≈ 5.43 mM), the “MIC, S. aureus” value [3, 10] was 0.2 w/v % and the “MIC, S. aureus” value [3, 12] was 0.0125 w/v %.
